Laboratory results taken from PubChem BioAssay AID330 (DTP/NCI, 2004).
Where “and” joins values, the source holds several entries; their conditions need not be identical. Equal values may be shown once. Toxic doses and inconclusive results are not listed.

System: P388 leukemia ip, CD2F1 mice, survival T/C
Assay: NCI In Vivo Anticancer Drug Screen. Data for tumor model P388 Leukemia (intraperitoneal) in CD2F1 (CDF1) mice
Conditions: endpoint: median survival time, higher = longer survival
Procedure, shortened: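 Mice carrying the transplanted tumor received test compound or vehicle. Survival was recorded in each group, and the value is the treated-group measurement divided by that of the vehicle-treated control group.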

[1] = dose: 60.0 mg/kg/injection, schedule: Q01DX005 (ip), vehicle: saline with Tween-80
[2] = dose: 120.0 mg/kg/injection, schedule: Q01DX005 (ip), vehicle: saline with Tween-80
[3] = dose: 240.0 mg/kg/injection, schedule: Q01DX005 (ip), vehicle: saline with Tween-80
[4] = dose: 100.0 mg/kg/injection, schedule: Q04DX003 (ip), vehicle: saline with Tween-80
[5] = dose: 200.0 mg/kg/injection, schedule: Q04DX003 (ip), vehicle: saline with Tween-80
[6] = dose: 50.0 mg/kg/injection, schedule: Q01DX009 (ip), vehicle: saline with Tween-80
[7] = dose: 100.0 mg/kg/injection, schedule: Q01DX009 (ip), vehicle: saline with Tween-80

## CCC1(O)CC2CN(CCc3c([nH]c4ccccc34)C(C(=O)OC)(c3cc4c(cc3OC)N(C)C3C(O)(C(N)=O)C(O)C5(CC)C=CCN6CCC43C65)C2)C1 (stereo not drawn) (tested in a mixture with another compound)
dose: 0.06 mg/kg/injection, schedule: Q01DX009 (ip), vehicle: water
  T/C: 107 % of control
dose: 0.11 mg/kg/injection, schedule: Q04DX003 (ip), vehicle: clinical formulation
  T/C: 158 % of control
dose: 0.13 mg/kg/injection, schedule: Q04DX003 (ip), vehicle: saline
  T/C: 161 % of control
dose: 0.18 mg/kg/injection, schedule: Q04DX003 (ip), vehicle: clinical formulation
  T/C: 161 % of control
dose: 0.22 mg/kg/injection, schedule: Q01DX009 (ip), vehicle: water
  T/C: 123 % of control
dose: 0.25 mg/kg/injection, schedule: Q04DX003 (ip), vehicle: water
  T/C: 158 % of control
dose: 0.3 mg/kg/injection, schedule: Q04DX003 (ip), vehicle: clinical formulation
  T/C: 180 % of control
dose: 0.5 mg/kg/injection, schedule: Q04DX003 (ip), vehicle: clinical formulation
  T/C: 179 % of control
dose: 0.5 mg/kg/injection, schedule: Q04DX003 (ip), vehicle: saline
  T/C: 203 % of control and 216 % of control
dose: 0.5 mg/kg/injection, schedule: Q04DX003 (ip), vehicle: water
  T/C: 163 % of control
dose: 0.6 mg/kg/injection, schedule: Q01DX009 (ip), vehicle: water
  T/C: 97 % of control
dose: 0.67 mg/kg/injection, schedule: Q04DX003 (ip), vehicle: saline
  T/C: 177 % of control
dose: 0.67 mg/kg/injection, schedule: Q04DX003 (ip), vehicle: water
  T/C: 202 % of control
dose: 0.83 mg/kg/injection, schedule: Q04DX003 (ip), vehicle: clinical formulation
  T/C: 215 % of control
dose: 1.0 mg/kg/injection, schedule: Q01DX009 (ip), vehicle: water
  T/C: 100 % of control and 223 % of control
dose: 1.0 mg/kg/injection, schedule: Q04DX003 (ip), vehicle: saline
  T/C: 189 % of control and 191 % of control
dose: 1.0 mg/kg/injection, schedule: Q04DX003 (ip), vehicle: water
  T/C: 188 % of control and 200 % of control
dose: 1.08 mg/kg/injection, schedule: Q04DX003 (ip), vehicle: clinical formulation
  T/C: 170 % of control
dose: 1.3 mg/kg/injection, schedule: Q04DX003 (ip), vehicle: water
  T/C: 222 % of control
dose: 1.5 mg/kg/injection, schedule: Q04DX003 (ip), vehicle: saline
  T/C: 184 % of control
dose: 1.5 mg/kg/injection, schedule: Q04DX003 (ip), vehicle: water
  T/C: 268 % of control
dose: 1.8 mg/kg/injection, schedule: Q04DX003 (ip), vehicle: clinical formulation
  T/C: 173 % of control
dose: 2.0 mg/kg/injection, schedule: Q04DX003 (ip), vehicle: water
  T/C: 186 % of control and 283 % of control
dose: 3.0 mg/kg/injection, schedule: Q04DX003 (ip), vehicle: clinical formulation
  T/C: 95 % of control
dose: 3.0 mg/kg/injection, schedule: Q04DX003 (ip), vehicle: water
  T/C: 123 % of control

## Nc1nc(N)c2cc(C=O)ccc2n1
dose: 0.39 mg/kg/injection, schedule: Q01DX009 (ip), vehicle: distilled water + Tween-80
  T/C: 100 % of control
dose: 0.78 mg/kg/injection, schedule: Q01DX009 (ip), vehicle: distilled water + Tween-80
  T/C: 101 % of control
dose: 1.56 mg/kg/injection, schedule: Q01DX009 (ip), vehicle: distilled water + Tween-80
  T/C: 110 % of control
dose: 3.13 mg/kg/injection, schedule: Q01DX009 (ip), vehicle: distilled water + Tween-80
  T/C: 100 % of control
dose: 6.25 mg/kg/injection, schedule: Q01DX009 (ip), vehicle: distilled water + Tween-80
  T/C: 109 % of control

## CC(=O)CCC(=O)CC(=O)CCC(=O)Nc1cc(Cl)ccc1Cl
[1]
  T/C: 107 % of control
[2]
  T/C: 106 % of control
[3]
  T/C: 101 % of control

## Cn1c(=O)c2[nH]c(-c3c[nH]c4ccccc34)nc2n(C)c1=O
[4]
  T/C: 89 % of control
[5]
  T/C: 89 % of control
dose: 400.0 mg/kg/injection, schedule: Q04DX003 (ip), vehicle: saline with Tween-80
  T/C: 86 % of control

## CC1C(c2ccccc2)OCN1CC=C(c1ccsc1)c1ccsc1 (stereo not drawn)
dose: 60.0 mg/kg/injection, schedule: Q01DX005 (ip), vehicle: Klucel (hydroxypropylcellulose) (HPC)
  T/C: 96 % of control
dose: 120.0 mg/kg/injection, schedule: Q01DX005 (ip), vehicle: Klucel (hydroxypropylcellulose) (HPC)
  T/C: 91 % of control
dose: 240.0 mg/kg/injection, schedule: Q01DX005 (ip), vehicle: Klucel (hydroxypropylcellulose) (HPC)
  T/C: 91 % of control

## COc1cccc2c1C(=O)c1c(O)c3c(c(O)c1C2=O)C[C@@](O)(/C(C)=N/NC(=O)c1ccc(S(N)(=O)=O)cc1)C[C@@H]3OC1CC(N)C(O)C(C)O1 (stereo partly drawn)
dose: 0.78 mg/kg/injection, schedule: Q01DX009 (ip), vehicle: water
  T/C: 150 % of control
dose: 1.56 mg/kg/injection, schedule: Q01DX009 (ip), vehicle: water
  T/C: 161 % of control
dose: 3.13 mg/kg/injection, schedule: Q01DX009 (ip), vehicle: water
  T/C: 154 % of control and 182 % of control
dose: 4.7 mg/kg/injection, schedule: Q04DX003 (ip), vehicle: water
  T/C: 105 % of control and 106 % of control
dose: 6.25 mg/kg/injection, schedule: Q01DX009 (ip), vehicle: water
  T/C: 178 % of control and 201 % of control
dose: 12.5 mg/kg/injection, schedule: Q01DX001 (ip), vehicle: water
  T/C: 161 % of control
dose: 12.5 mg/kg/injection, schedule: Q01DX009 (ip), vehicle: water
  T/C: 196 % of control and 214 % of control
dose: 18.8 mg/kg/injection, schedule: Q04DX003 (ip), vehicle: water
  T/C: 123 % of control
dose: 25.0 mg/kg/injection, schedule: Q01DX001 (ip), vehicle: water
  T/C: 188 % of control
dose: 37.5 mg/kg/injection, schedule: Q04DX003 (ip), vehicle: water
  T/C: 203 % of control
dose: 75.0 mg/kg/injection, schedule: Q04DX003 (ip), vehicle: water
  T/C: 122 % of control
dose: 150.0 mg/kg/injection, schedule: Q04DX003 (ip), vehicle: water
  T/C: 100 % of control and 93 % of control

## C/C(=N\SC(c1ccccc1)(c1ccccc1)c1ccccc1)c1ccccc1
dose: 100.0 mg/kg/injection, schedule: Q01DX001 (ip), vehicle: saline with Tween-80
  T/C: 95 % of control
dose: 200.0 mg/kg/injection, schedule: Q01DX001 (ip), vehicle: saline with Tween-80
  T/C: 88 % of control

## C=C1C(=O)C23C(OC(=O)CCCCCCCCCCC)C1CCC2C12COC3(O)C(O)C1C(C)(C)CCC2O (stereo not drawn)
dose: 3.75 mg/kg/injection, schedule: Q01DX009 (ip), vehicle: saline with Tween-80
  T/C: 98 % of control
dose: 7.5 mg/kg/injection, schedule: Q01DX009 (ip), vehicle: saline with Tween-80
  T/C: 103 % of control
dose: 15.0 mg/kg/injection, schedule: Q01DX009 (ip), vehicle: saline with Tween-80
  T/C: 95 % of control
dose: 30.0 mg/kg/injection, schedule: Q01DX009 (ip), vehicle: saline with Tween-80
  T/C: 100 % of control

## O=C(NC(Cc1c[nH]c2ccccc12)C(=O)O)C(=O)c1c[nH]c2ccccc12 (stereo not drawn)
[1]
  T/C: 100 % of control
[2]
  T/C: 97 % of control
[3]
  T/C: 90 % of control

## CC(C)C(=NC(C)(C)C)Nc1ccccc1Cl
[6]
  T/C: 100 % of control
[7]
  T/C: 92 % of control
dose: 200.0 mg/kg/injection, schedule: Q01DX009 (ip), vehicle: saline with Tween-80
  T/C: 95 % of control

## CN(C)CCS(=O)(=O)O
dose: 1.56 mg/kg/injection, schedule: Q04DX003 (ip), vehicle: saline
  T/C: 100 % of control
dose: 3.12 mg/kg/injection, schedule: Q04DX003 (ip), vehicle: saline
  T/C: 100 % of control
dose: 6.25 mg/kg/injection, schedule: Q04DX003 (ip), vehicle: saline
  T/C: 88 % of control
dose: 12.5 mg/kg/injection, schedule: Q04DX003 (ip), vehicle: saline
  T/C: 94 % of control
dose: 50.0 mg/kg/injection, schedule: Q04DX003 (ip), vehicle: saline
  T/C: 97 % of control
dose: 100.0 mg/kg/injection, schedule: Q04DX003 (ip), vehicle: saline
  T/C: 102 % of control

## FC(F)(F)c1ccc2c(N/N=C/c3ccc(N(CCCl)CCCl)cc3)ccnc2c1
dose: 100.0 mg/kg/injection, schedule: Q04DX003 (ip), vehicle: Klucel (hydroxypropylcellulose) (HPC)
  T/C: 111 % of control
dose: 200.0 mg/kg/injection, schedule: Q04DX003 (ip), vehicle: Klucel (hydroxypropylcellulose) (HPC)
  T/C: 99 % of control
dose: 400.0 mg/kg/injection, schedule: Q04DX003 (ip), vehicle: Klucel (hydroxypropylcellulose) (HPC)
  T/C: 90 % of control

## CCO/C(=C\C(=O)c1ccccc1)c1ccccc1
dose: 50.0 mg/kg/injection, schedule: Q04DX003 (ip), vehicle: saline with Tween-80
  T/C: 100 % of control
[4]
  T/C: 100 % of control
[5]
  T/C: 100 % of control

## C(=C\c1cccnc1)/c1ccncc1
dose: 25.0 mg/kg/injection, schedule: Q01DX009 (ip), vehicle: saline with Tween-80
  T/C: 95 % of control
[6]
  T/C: 104 % of control
[7]
  T/C: 109 % of control
